Source: PubChem BioAssay AID602177 (NMMLSC, 2012)
The source made the active and inactive calls. The rule behind the calls is not given here.

Molecular target: Botulinum neurotoxin type F (Clostridium botulinum) (UniProt P30996)
Test: BoNT/F light chain protease inhibitor potency, dose response, biochemical, cherry pick 1 compounds (AID 602177)
Conditions: multiplex microsphere protease cleavage assay, BoNT/F LC

Structure (SMILES): Oc1[nH]c(N=C2N=c3ccccc3=N2)c2ccccc12
- EC50: > 20 µM (inactive)
